Assay results as given in patent US20240415808A1, “Dosage Regimen for Fexuprazan Injection Composition” (Daewoong Pharmaceutical Co., Ltd., priority 2021, published 2024).
Where “and” joins values, the source holds several entries; their conditions need not be identical. Equal values may be shown once.

How the values were obtained:
[1] = system: acidity (pH) in the gastrointestinal tract; assay: multiple intravenous administration clinical trial (7 days), acidity (pH) in the gastrointestinal tract; format: in vivo, human; conditions: healthy adults; for Fraction time pH ≥ 4 over 24 hours post-dose (duration %) / Mean pH / Median pH: 7th day
Method: Subsequent to Experimental Example 4, in order to confirm the change in PD value during multiple administration of the compound of the present invention, the clinical trial was designed to be randomized, double-blind, placebo-controlled in healthy adults between the ages of 19 and 50.
A stabilizer (200 mg), a freeze-drying auxiliary agent (200 mg), and the previously prepared fexuprazan hydrochloride (40 mg based on fexuprazan weight) were dissolved in water for injection (4 mL), and the pH was adjusted to 4.0 by adding an appropriate amount of acid. The prepared solution was put into a vial and dried using a freeze-drying method to prepare a freeze-dried agent.
The freeze-dried composition prepared as above was used, but a total of 28 subject of […], 8, and 8 subjects each were enrolled for three dose groups (20 mg, 40 mg, and 80 mg) based on fexuprazan weight, and each group was randomly assigned to test or control groups in the order that they passed the screening criteria at a ratio of 3:1.
Dose groups 1 and 3 in Table 12 were administered once a day (every 24 hours) (FIG. 8), and dose group 2 was administered twice a day (every 12 hours) for 7 days (FIG. 9).
The acidity (pH) tests in the gastrointestinal tract were performed for 48 hours from the day before administration to 24 hours after the first administration. On the 7th day, it was administered for 24 hours after administration. The measured results are shown in Table 13 and FIGS. 10 to 14 below.

[2] = 4-week repeated intravenous toxicity test, rat; format: in vivo
Method: The previously prepared fexuprazan hydrochloride was dissolved in a solution containing 30 wt. % of polyethylene glycol (Polyethylene Glycol 400) polymer in physiological saline, and the concentration was calculated based on fexuprazan weight so that it could be administered at a liquid volume of 5 mL/kg for rats and 2 mL/kg for beagle dogs to prepare each composition. Toxicity was evaluated by intravenously administering at doses of 0, 2.5, 5, and 10 mg/kg/day to rats and beagle dogs, respectively, once a day for 4 weeks.

[3] = single intravenous dose-escalation clinical trial, safety; format: in vivo, human; conditions: healthy adults, single intravenous 10, 20, 40, 80 mg
Method: (§1) In order to confirm the safety/PK/PD of the compound of the present invention during intravenous administration, the clinical trial was designed with random assignment, double-blind, placebo-controlled, single dose, and stepwise dose-escalation in healthy adults (Korean/Chinese) between the ages of 19 and 50.
(§2) The freeze-dried composition prepared as above was used, but a total of 28 subjects of 4, 8, 8, and 8 subjects each were enrolled for four dose groups (10 mg, 20 mg, 40 mg, and 80 mg) based on fexuprazan weight, and each group was randomly assigned to test or control groups in the order that they passed the screening criteria at a ratio of 3:1. All test subjects completed safety, pharmacokinetic, and pharmacodynamic evaluations according to the planned clinical trial schedule.
(§3) Testing of the acidity (pH) in the gastrointestinal tract and gastric secretion promoting hormone gastrin were performed from 24 hours before medication to 24 hours after medication. Blood collection for pharmacokinetics and urine collection for pharmacokinetics were performed for 48 hours from the time of medication.

[4] = single intravenous dose-escalation clinical trial, pharmacokinetics; format: in vivo; conditions: human, blood, healthy adults
Method: as §1
A stabilizer (200 mg), a freeze-drying auxiliary agent (200 mg), and the previously prepared fexuprazan hydrochloride (40 mg based on fexuprazan weight) were dissolved in water for injection (4 mL), and an appropriate amount of acid was added thereto to adjust the pH to 4.0. The prepared solution was put into a vial, dried by a freeze-drying method, and prepared as a freeze-drying agent.
as §2
The medication was performed in the morning, and the patient was discharged from the hospital on the third day of medication. Subsequently, a close-out visit was performed between the 8th and 11th day of medication.
as §3
After a single intravenous administration of four dose groups for fexuprazan, the dose proportionality of fexuprazan to the Cmax, AUClast, and AUCinf parameters was evaluated between doses of 10 mg and 80 mg. The log-transformed parameters and 95% confidence interval regression lines of each dose after a single administration are shown in Table 7 and FIG. 3, respectively. […] That is, it can be confirmed that the pK parameter of intravenous administration is proportional to the dose.
Table 8 and FIG. 4 show the results of the Kruskal Wallis test for dose-normalized Cmax (Cmax/Dose), AUClast (AUClast/Dose), and AUCinf (AUCinf/Dose) between dose groups. […] That is, it can be seen that there is no significant difference between dose groups in the proportional relationship, and the appropriate dose for intravenous administration can be calculated indirectly through the appropriate dose for oral administration.

CNCc1cn(S(=O)(=O)c2cccc(F)c2)c(-c2ccc(F)cc2F)c1OC [Fexuprazan, 1-(5-(2,4-difluorophenyl)-1-((3-fluorophenyl)sulfonyl)-4-methoxy-1H-pyrrol-3-yl)-N-methylmethanamine]
Fraction time pH ≥ 4 over 24 hours post-dose (duration %) ([1]; 20 mg IV q24h): 55.68 (±14.85) % and 55.68 ± 14.85% | Mean pH ([1]; 20 mg IV q24h): 4.28 ± 0.7 | Median pH ([1]; 20 mg IV q24h): 4.29 ± 1.32 | Fraction time pH ≥ 6 over 24 hours post-dose (duration %) ([1]; 20 mg IV q24h, 7th day (n = 6)): 25.29 ± 15.41% | Fraction time pH ≥ 4 over 24 hours post-dose (duration %) ([1]; 40 mg IV q12h): 99.85 ± 0.31% | Mean pH ([1]; 40 mg IV q12h): 6.34 ± 0.23 | Median pH ([1]; 40 mg IV q12h): 6.33 ± 0.22 | Fraction time pH ≥ 6 over 24 hours post-dose (duration %) ([1]; 40 mg IV q12h, 7th day (n = 5)): 74.77 (±13.39) % and 74.77 ± 13.39% | Fraction time pH ≥ 4 over 24 hours post-dose (duration %) ([1]; 80 mg IV q24h): 94.78 ± 8.49% | Mean pH ([1]; 80 mg IV q24h): 6.08 ± 0.5 | Median pH ([1]; 80 mg IV q24h): 6.28 ± 0.27 | Fraction time pH ≥ 6 over 24 hours post-dose (duration %) ([1]; 80 mg IV q24h, 7th day (n = 6)): 70.07% and 70.07 ± 18.09% | Result: harmless dose ([2]; Rat, 4 weeks, intravenous, doses 0, 2.5, 5, 10): harmless dose 10 mg/kg | toxic symptoms due to the test substance ([2]; rats, 2.5, 5, 10 mg/kg/day intravenous, 4 weeks): no toxic symptoms due to the test substance were observed in all administration groups | harmless dose ([2]; rats, intravenous once a day for 4 weeks): 10 mg/kg/day | serious abnormalities or side effects [3]: no serious abnormalities or side effects were observed | AUC(0-inf) ([4]; single intravenous 10 mg): 240 ± 31.3 ng·h/mL | AUC(0-t) ([4]; single intravenous 10 mg): 235 ± 32.3 ng·h/mL | clearance ([4]; single intravenous 10 mg): 702 mL/min | half-life ([4]; single intravenous 10 mg): 9.04 ± 0.85 h | Cmax ([4]; single intravenous 10 mg (N = 3)): 93.7 ± 13.9 ng/mL | AUC(0-inf) ([4]; single intravenous 20 mg): 514 ± 113 ng·h/mL | AUC(0-t) ([4]; single intravenous 20 mg): 502 ± 111 ng·h/mL | clearance ([4]; single intravenous 20 mg): 677 mL/min | half-life ([4]; single intravenous 20 mg): 8.61 ± 1.89 h | Cmax ([4]; single intravenous 20 mg (N = 6)): 185 ± 32.3 ng/mL | AUC(0-inf) ([4]; single intravenous 40 mg): 1100 ± 238 ng·h/mL | AUC(0-t) ([4]; single intravenous 40 mg): 1070 ± 225 ng·h/mL | clearance ([4]; single intravenous 40 mg): 630 mL/min | half-life ([4]; single intravenous 40 mg): 8.84 ± 0.96 h | Cmax ([4]; single intravenous 40 mg (N = 6)): 321 ± 75.7 ng/mL | AUC(0-inf) ([4]; single intravenous 80 mg): 2380 ± 301 ng·h/mL | AUC(0-t) ([4]; single intravenous 80 mg): 2290 ± 271 ng·h/mL | clearance ([4]; single intravenous 80 mg): 567 mL/min | half-life ([4]; single intravenous 80 mg): 10.2 ± 1.84 h | Cmax ([4]; single intravenous 80 mg (N = 6)): 633 ± 165 ng/mL
